Laboratory results from patent US20260317309A1, “N-HETEROCYLIC GPCR RECEPTOR AGONISTS, PHARMACEUTICAL COMPOSITIONS COMPRISING THE SAME, AND METHODS FOR THEIR USE” (Carmot Therapeutics, Inc., priority 2022, published 2026).

target: T1, human GLP-1 receptor (Homo sapiens, UniProt P43220); experiment: GLP-1R cAMP assay (cAMP accumulation in CHO cells stably overexpressing the human GLP-1 receptor, HitHunter kit); type: cell-based; settings: CHO cells stably overexpressing human GLP-1R, 30 min, 20-point dose response in triplicate
T1 construct: expressed in transfected cells
T1 sequence (P43220 24-463): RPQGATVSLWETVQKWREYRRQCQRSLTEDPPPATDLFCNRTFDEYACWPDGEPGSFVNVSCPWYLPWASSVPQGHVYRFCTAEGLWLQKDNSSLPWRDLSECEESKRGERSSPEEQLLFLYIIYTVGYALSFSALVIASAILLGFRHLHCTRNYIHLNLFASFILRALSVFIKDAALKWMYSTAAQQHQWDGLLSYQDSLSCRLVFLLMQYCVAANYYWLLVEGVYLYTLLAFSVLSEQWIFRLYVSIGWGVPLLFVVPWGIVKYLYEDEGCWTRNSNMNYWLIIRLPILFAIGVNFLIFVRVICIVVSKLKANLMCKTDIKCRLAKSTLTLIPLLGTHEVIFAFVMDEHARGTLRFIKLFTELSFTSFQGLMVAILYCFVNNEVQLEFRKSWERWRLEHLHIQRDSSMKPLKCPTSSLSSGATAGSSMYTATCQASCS
How it was run: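 CHO cells stably expressing the human receptor (10,000/well) in HBSS with 10 mM HEPES and 625 μM IBMX, given compound as a 20-point dose response in triplicate for 30 min. cAMP was read by luminescent enzyme-complementation detection after overnight incubation, and EC50 was fitted from dose-response curves.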

Row | Structure (SMILES) | EC50 [nM]
1 | O=C(O)c1cc(F)c2nc(CN3CCC(Oc4ccnc(COc5ncc(Cl)cc5F)c4)CC3)n(C[C@@H]3CCO3)c2c1 [Compound 613, (S)-2-((4-((2-(((5-Chloro-3-fluoropyridin-2-yl)oxy)methyl)pyridin-4-yl)oxy)piperidin-1-yl)methyl)-4-fluoro-1-(oxetan-2-ylmethyl)-1H-benzo[d]imidazole-6-carboxylic acid] | 0.1 to 1
2 | C[C@H]1C[C@@H](Oc2ccnc(NCc3ccc(F)cc3F)n2)CCN1Cc1nc2ccc(C(=O)O)cc2n1C[C@@H]1CCO1 [Compound 614, 2-(((2S,4S)-4-((2-((2,4-Difluorobenzyl)amino)pyrimidin-4-yl)oxy)-2-methylpiperidin-1-yl)methyl)-1-(((S)-oxetan-2-yl)methyl)-1H-benzo[d]imidazole-6-carboxylic acid] | 0.1 to 1
3 | C[C@H]1C[C@@H](Oc2ccnc(COc3ncc(F)cc3F)c2)CCN1Cc1nc2c(F)cc(C(=O)O)cc2n1C[C@@H]1CCO1 [Compound 619, 2-(((2S,4S)-4-((2-(((3,5-Difluoropyridin-2-yl)oxy)methyl)pyridin-4-yl)oxy)-2-methylpiperidin-1-yl)methyl)-4-fluoro-1-(((S)-oxetan-2-yl)methyl)-1H-benzo[d]imidazole-6-carboxylic acid] | 1 to 10
4 | C[C@H]1C[C@@H](Oc2ccnc(COc3ncc(F)cc3F)n2)CCN1Cc1nc2c(F)cc(C(=O)O)cc2n1C[C@@H]1CCCO1 [Compound 622, 2-(((2S,4S)-4-((2-(((3,5-Difluoropyridin-2-yl)oxy)methyl)pyrimidin-4-yl)oxy)-2-methylpiperidin-1-yl)methyl)-4-fluoro-1-(((S)-tetrahydrofuran-2-yl)methyl)-1H-benzo[d]imidazole-6-carboxylic acid] | 0.1 to 1
5 | C[C@H]1C[C@@H](Oc2ccnc(CNc3ncc(F)cc3Cl)n2)CCN1Cc1nc2ccc(C(=O)O)cc2n1C[C@@H]1CCO1 [Compound 624, 2-(((2S,4S)-4-((2-(((3-Chloro-5-fluoropyridin-2-yl)amino)methyl)pyrimidin-4-yl)oxy)-2-methylpiperidin-1-yl)methyl)-1-(((S)-oxetan-2-yl)methyl)-1H-benzo[d]imidazole-6-carboxylic acid] | 1 to 10
6 | C[C@H](Cn1c(CN2CC[C@H](Oc3ccnc(COc4ncc(C#N)cc4F)n3)C[C@@H]2C)nc2ccc(C(=O)O)cc21)OC(F)F [Compound 626, 2-(((2S,4S)-4-((2-(((5-cyano-3-fluoropyridin-2-yl)oxy)methyl)pyrimidin-4-yl)oxy)-2-methylpiperidin-1-yl)methyl)-1-((R)-2-(difluoromethoxy)propyl)-1H-benzo[d]imidazole-6-carboxylic acid] | 0.1 to 1
7 | C[C@H]1C[C@@H](Oc2ccnc(COc3ncc(F)cc3C#N)n2)CCN1Cc1nc2c(F)cc(C(=O)O)cc2n1C[C@@H]1CCO1 [Compound 629, 2-(((2S,4S)-4-((2-(((3-cyano-5-fluoropyridin-2-yl)oxy)methyl)pyrimidin-4-yl)oxy)-2-methylpiperidin-1-yl)methyl)-4-fluoro-1-(((S)-oxetan-2-yl)methyl)-1H-benzo[d]imidazole-6-carboxylic acid] | < 0.1
8 | C[C@H]1C[C@@H](Oc2ccnc(COc3ncc(F)cc3C#N)n2)CCN1Cc1nc2ccc(C(=O)O)cc2n1C[C@@H]1CCO1 [Compound 630, 2-(((2S,4S)-4-((2-(((3-Cyano-5-fluoropyridin-2-yl)oxy)methyl)pyrimidin-4-yl)oxy)-2-methylpiperidin-1-yl)methyl)-1-(((S)-oxetan-2-yl)methyl)-1H-benzo[d]imidazole-6-carboxylic acid] | 0.1 to 1
9 | C[C@H]1C[C@@H](Oc2ccnc(COc3ncc(F)cc3F)n2)CCN1Cc1nc2ccc(C(=O)O)cc2n1C[C@@H]1CCCO1 [Compound 632, 2-(((2S,4S)-4-((2-(((3,5-Difluoropyridin-2-yl)oxy)methyl)pyrimidin-4-yl)oxy)-2-methylpiperidin-1-yl)methyl)-1-(((S)-tetrahydrofuran-2-yl)methyl)-1H-benzo[d]imidazole-6-carboxylic acid] | 0.1 to 1
10 | C[C@H]1C[C@@H](Oc2ccnc(COc3ccc(F)cc3F)n2)CCN1Cc1nc2ccccc2n1C[C@@H]1CCO1 [Compound 633, 2-(((2S,4S)-4-((2-((2,4-Difluorophenoxy)methyl)pyrimidin-4-yl)oxy)-2-methylpiperidin-1-yl)methyl)-1-(((S)-oxetan-2-yl)methyl)-1H-benzo[d]imidazole] | 10 to 100

Results, then the compound that gave them:

Row | EC50 [nM] | Structure (SMILES)
11 | 1 to 10 | C[C@@H](Cn1c(CN2CC[C@H](Oc3ccnc(COc4ccc(F)cc4F)n3)C[C@@H]2C)nc2ccc(C(=O)O)cc21)OC1CC1 [Compound 612, 1-((S)-2-cyclopropoxypropyl)-2-(((2S,4S)-4-((2-((2,4-difluorophenoxy)methyl)pyrimidin-4-yl)oxy)-2-methylpiperidin-1-yl)methyl)-1H-benzo[d]imidazole-6-carboxylic acid]
12 | 0.1 to 1 | C[C@H]1C[C@@H](Oc2ccnc(COc3ncc(Cl)cc3F)c2)CCN1Cc1nc2ccc(C(=O)O)cc2n1C[C@@H]1CCO1 [Compound 615, 2-(((2S,4S)-4-((2-(((5-Chloro-3-fluoropyridin-2-yl)oxy)methyl)pyridin-4-yl)oxy)-2-methylpiperidin-1-yl)methyl)-1-(((S)-oxetan-2-yl)methyl)-1H-benzo[d]imidazole-6-carboxylic acid]
13 | 0.1 to 1 | C[C@H]1C[C@@H](Oc2ccnc(COc3ccc(Cl)cn3)c2)CCN1Cc1nc2c(F)cc(C(=O)O)cc2n1C[C@@H]1CCO1 [Compound 616, 2-(((2S,4S)-4-((2-(((5-Chloropyridin-2-yl)oxy)methyl)pyridin-4-yl)oxy)-2-methylpiperidin-1-yl)methyl)-4-fluoro-1-(((S)-oxetan-2-yl)methyl)-1H-benzo[d]imidazole-6-carboxylic acid]
14 | < 0.1 | C[C@H](Cn1c(CN2CC[C@H](Oc3ccnc(COc4ncc(F)cc4F)n3)C[C@@H]2C)nc2ccc(C(=O)O)cc21)OC(F)F [Compound 617, 1-((R)-2-(Difluoromethoxy)propyl)-2-(((2S,4S)-4-((2-(((3,5-difluoropyridin-2-yl)oxy)methyl)pyrimidin-4-yl)oxy)-2-methylpiperidin-1-yl)methyl)-1H-benzo[d]imidazole-6-carboxylic acid]
15 | 0.1 to 1 | C[C@H](Cn1c(CN2CC[C@H](Oc3ccnc(COc4ccc(F)cc4F)n3)C[C@@H]2C)nc2ccc(C(=O)O)cc21)OC1CC1 [Compound 618, 1-((R)-2-cyclopropoxypropyl)-2-(((2S,4S)-4-((2-((2,4-difluorophenoxy)methyl)pyrimidin-4-yl)oxy)-2-methylpiperidin-1-yl)methyl)-1H-benzo[d]imidazole-6-carboxylic acid]
16 | 0.1 to 1 | C[C@H](Cn1c(CN2CC[C@H](Oc3ccnc(COc4ncc(F)cc4F)n3)C[C@@H]2C)nc2c(F)cc(C(=O)O)cc21)OC(F)F [Compound 620, 1-((R)-2-(difluoromethoxy)propyl)-2-(((2S,4S)-4-((2-(((3,5-difluoropyridin-2-yl)oxy)methyl)pyrimidin-4-yl)oxy)-2-methylpiperidin-1-yl)methyl)-4-fluoro-1H-benzo[d]imidazole-6-carboxylic acid]
17 | < 0.1 | C[C@H]1C[C@@H](Oc2ccnc(COc3ccc(F)cc3F)n2)CCN1Cc1nc2c(F)cc(C(=O)O)cc2n1C[C@@H]1CCCO1 [Compound 621, 2-(((2S,4S)-4-((2-((2,4-Difluorophenoxy)methyl)pyrimidin-4-yl)oxy)-2-methylpiperidin-1-yl)methyl)-4-fluoro-1-(((S)-tetrahydrofuran-2-yl)methyl)-1H-benzo[d]imidazole-6-carboxylic acid]
18 | 1 to 10 | C[C@H]1C[C@@H](Oc2ccnc(COc3ccc(F)cc3F)n2)CCN1Cc1nc2ccc(CCC(=O)O)cc2n1C[C@@H]1CCO1 [Compound 623, 3-(2-(((2S,4S)-4-((2-((2,4-difluorophenoxy)methyl)pyrimidin-4-yl)oxy)-2-methylpiperidin-1-yl)methyl)-1-(((S)-oxetan-2-yl)methyl)-1H-benzo[d]imidazol-6-yl) propanoic acid]
19 | 1 to 10 | C[C@H]1C[C@@H](Oc2ccnc(COc3ncc(C#N)cc3F)c2)CCN1Cc1nc2c(F)cc(C(=O)O)cc2n1C[C@@H]1CCO1 [Compound 625, 2-(((2S,4S)-4-((2-(((5-Cyano-3-fluoropyridin-2-yl)oxy)methyl)pyridin-4-yl)oxy)-2-methylpiperidin-1-yl)methyl)-4-fluoro-1-(((S)-oxetan-2-yl)methyl)-1H-benzo[d]imidazole-6-carboxylic acid]
20 | 0.1 to 1 | C[C@H](Cn1c(CN2CC[C@H](Oc3ccnc(COc4ncc(F)cc4C#N)n3)C[C@@H]2C)nc2ccc(C(=O)O)cc21)OC(F)F [Compound 627, 2-(((2S,4S)-4-((2-(((3-Cyano-5-fluoropyridin-2-yl)oxy)methyl)pyrimidin-4-yl)oxy)-2-methylpiperidin-1-yl)methyl)-1-((R)-2-(difluoromethoxy)propyl)-1H-benzo[d]imidazole-6-carboxylic acid]
21 | 0.1 to 1 | O=C(O)c1cc(F)c2nc(CN3CCC(Oc4ccnc(COc5ncc(F)cc5F)n4)CC3)n(C[C@@H]3CCO3)c2c1 [Compound 628, (S)-2-((4-((2-(((3,5-difluoropyridin-2-yl)oxy)methyl)pyrimidin-4-yl)oxy)piperidin-1-yl)methyl)-4-fluoro-1-(oxetan-2-ylmethyl)-1H-benzo[d]imidazole-6-carboxylic acid]
22 | 0.1 to 1 | C[C@H]1C[C@@H](Oc2ccnc(COc3ncc(C#N)cc3F)n2)CCN1Cc1nc2ccc(C(=O)O)cc2n1C[C@@H]1CCCO1 [Compound 631, 2-(((2S,4S)-4-((2-(((5-cyano-3-fluoropyridin-2-yl)oxy)methyl)pyrimidin-4-yl)oxy)-2-methylpiperidin-1-yl)methyl)-1-(((S)-tetrahydrofuran-2-yl)methyl)-1H-benzo[d]imidazole-6-carboxylic acid]
23 | 0.1 to 1 | N#Cc1cnc(OCc2nccc(OC3CCN(Cc4nc5c(F)cc(C(=O)O)cc5n4C[C@@H]4CCO4)CC3)n2)c(F)c1 [Compound 634]
